# Results from ChEMBL document CHEMBL1201862, “PubChem BioAssay data set” (2004).
# Activity calls are given as the source filed them.
# What was measured:
# [1] = target: T1, Rac GTPase-activating protein 1 (Homo sapiens, UniProt Q9H0H5); assay: blockers of MgcRacGAP-driven Rac1 GTP hydrolysis – biochemical, ADP Hunter fluorescence, primary and confirmatory, confirmation (AID 624330); assay type: functional
# T1 sequence (Q9H0H5 whole entry): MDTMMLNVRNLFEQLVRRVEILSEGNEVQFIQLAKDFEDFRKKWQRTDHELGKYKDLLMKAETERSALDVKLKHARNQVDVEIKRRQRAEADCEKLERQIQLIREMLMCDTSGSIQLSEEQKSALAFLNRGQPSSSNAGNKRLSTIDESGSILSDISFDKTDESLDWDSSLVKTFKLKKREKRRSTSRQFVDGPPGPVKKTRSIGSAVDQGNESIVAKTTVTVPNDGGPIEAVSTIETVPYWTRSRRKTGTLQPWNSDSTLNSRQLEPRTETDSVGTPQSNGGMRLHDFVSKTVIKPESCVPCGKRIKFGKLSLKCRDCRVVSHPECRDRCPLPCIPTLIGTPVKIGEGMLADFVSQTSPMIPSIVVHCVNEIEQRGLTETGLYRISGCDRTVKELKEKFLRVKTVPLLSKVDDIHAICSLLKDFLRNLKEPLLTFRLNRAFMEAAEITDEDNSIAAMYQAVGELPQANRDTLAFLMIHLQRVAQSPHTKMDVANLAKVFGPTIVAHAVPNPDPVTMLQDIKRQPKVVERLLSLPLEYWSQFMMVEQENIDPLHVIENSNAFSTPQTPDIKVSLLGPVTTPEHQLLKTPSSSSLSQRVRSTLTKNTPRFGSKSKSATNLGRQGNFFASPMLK
# [2] = target: T2, Zinc finger protein mex-5 (Caenorhabditis elegans, UniProt Q9XUB2); assay: potency of MEX-5 RNA-binding blockers – biochemical, C. elegans, fluorescence polarization, dose response (AID 1960)
# T2 sequence (Q9XUB2 whole entry): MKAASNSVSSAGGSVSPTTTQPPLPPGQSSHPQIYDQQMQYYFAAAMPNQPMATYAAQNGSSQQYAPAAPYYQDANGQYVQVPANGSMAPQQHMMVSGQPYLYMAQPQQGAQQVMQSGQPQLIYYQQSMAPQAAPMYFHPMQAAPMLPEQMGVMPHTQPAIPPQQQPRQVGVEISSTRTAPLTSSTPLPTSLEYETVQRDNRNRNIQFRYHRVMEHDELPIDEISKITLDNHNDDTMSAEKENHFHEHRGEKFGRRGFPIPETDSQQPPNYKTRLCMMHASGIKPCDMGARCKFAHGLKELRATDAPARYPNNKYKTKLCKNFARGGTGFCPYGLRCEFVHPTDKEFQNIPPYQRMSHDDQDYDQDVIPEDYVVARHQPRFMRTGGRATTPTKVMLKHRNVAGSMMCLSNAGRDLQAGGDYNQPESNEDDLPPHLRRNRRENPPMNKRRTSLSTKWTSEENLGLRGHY
# [3] = target: T3, RNA-binding protein pos-1 (Caenorhabditis elegans, UniProt G5EF15); assay: disruptors of C. elegans POS-1 RNA interaction – biochemical, fluorescence polarization, dose response (AID 1964);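 further: purified POS-1 fused to maltose binding protein made in E. coli; potency of compounds blocking POS-1 binding to fluorescent RNA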
# T3 sequence (G5EF15 whole entry): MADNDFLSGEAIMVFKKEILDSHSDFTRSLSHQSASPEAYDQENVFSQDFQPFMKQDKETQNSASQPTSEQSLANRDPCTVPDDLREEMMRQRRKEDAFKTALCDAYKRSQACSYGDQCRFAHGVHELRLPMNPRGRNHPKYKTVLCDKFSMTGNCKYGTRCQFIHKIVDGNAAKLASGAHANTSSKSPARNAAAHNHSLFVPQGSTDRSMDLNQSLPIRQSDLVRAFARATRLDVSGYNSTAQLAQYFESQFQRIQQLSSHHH
# [4] = microbe, parasite or virus in culture; assay type: functional; conditions: Mycobacterium tuberculosis
# cells [5] = assay type: functional, cell-based
# cells [6] = assay type: functional, cell-based; remark: listed apart in the source
# [7] = target: T4, Heat shock factor protein 1 (Mus musculus, UniProt P38532); assay: decrease of HSF1-responsive luciferase luminescence – cell-based, NIH3T3, dose retest, confirmation (AID 2382); assay type: functional;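 further: NIH3T3 fibroblasts with HSF1-driven luciferase reporter stressed by proteasome inhibitor MG132; luminescence from HSF1-driven luciferase expression after 8 hours of MG132 stress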
# T4 sequence (P38532 whole entry): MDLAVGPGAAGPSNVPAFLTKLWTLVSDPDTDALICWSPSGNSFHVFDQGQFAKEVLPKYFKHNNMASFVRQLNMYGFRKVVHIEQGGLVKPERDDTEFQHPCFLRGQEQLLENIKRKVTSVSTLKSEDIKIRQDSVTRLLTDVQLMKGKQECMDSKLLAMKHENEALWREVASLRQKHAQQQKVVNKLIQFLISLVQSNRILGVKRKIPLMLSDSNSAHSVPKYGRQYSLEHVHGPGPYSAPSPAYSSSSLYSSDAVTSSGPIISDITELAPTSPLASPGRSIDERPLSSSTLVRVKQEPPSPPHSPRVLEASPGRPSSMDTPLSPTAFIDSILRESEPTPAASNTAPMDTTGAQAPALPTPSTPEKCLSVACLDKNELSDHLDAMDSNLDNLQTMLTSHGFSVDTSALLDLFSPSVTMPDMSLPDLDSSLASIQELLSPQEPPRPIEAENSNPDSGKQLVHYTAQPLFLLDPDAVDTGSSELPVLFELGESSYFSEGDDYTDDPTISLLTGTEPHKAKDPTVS
# [8] = viability of HCT116 lacking mutant beta-catenin – cell-based, human colon tumor, dose response (AID 1045); assay type: functional;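 further: HCT116 colon tumor cells with beta catenin knocked out; cells exposed to compound for 60 hours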
# [9] = viability of PTEN-deleted HCT116 cells – cell-based, HCT116 PTEN knockout, dose response (AID 1047); assay type: functional;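 further: HCT116 colon tumor cells with PTEN knocked out; cells exposed to compound for 60 hours before readout; potency for loss of cell viability measured by luminescence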
# Cytochrome P450 2C19 = Cytochrome P450 2C19 (Homo sapiens, UniProt P33261); assay: Cytochrome panel assay with activity outcomes. Panel member name: p450-cyp2c19 Compounds with AC50 equal or less than 10 uM are considered active; assay type: functional; conditions: read-out: AC50
# Protein skinhead-1 = target: T5, Protein skinhead-1 (Caenorhabditis elegans, UniProt P34707); assay type: functional
# T5 sequence (P34707 whole entry): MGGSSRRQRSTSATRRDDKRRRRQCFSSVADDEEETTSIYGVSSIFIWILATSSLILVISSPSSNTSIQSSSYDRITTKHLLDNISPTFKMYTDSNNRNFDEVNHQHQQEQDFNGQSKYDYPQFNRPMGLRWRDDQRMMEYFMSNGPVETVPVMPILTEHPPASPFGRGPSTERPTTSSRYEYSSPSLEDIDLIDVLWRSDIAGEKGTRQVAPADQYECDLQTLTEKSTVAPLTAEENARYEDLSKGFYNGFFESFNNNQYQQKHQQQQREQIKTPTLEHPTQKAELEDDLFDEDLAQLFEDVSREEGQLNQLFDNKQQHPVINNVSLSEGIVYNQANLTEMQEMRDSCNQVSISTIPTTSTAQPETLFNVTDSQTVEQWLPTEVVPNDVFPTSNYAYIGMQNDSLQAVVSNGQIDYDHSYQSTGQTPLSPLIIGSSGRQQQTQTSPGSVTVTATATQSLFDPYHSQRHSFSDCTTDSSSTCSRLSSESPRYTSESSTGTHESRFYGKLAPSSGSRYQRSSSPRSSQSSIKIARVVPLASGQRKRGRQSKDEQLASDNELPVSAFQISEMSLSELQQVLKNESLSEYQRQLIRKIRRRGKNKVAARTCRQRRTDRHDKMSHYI
# [10] = target: FAD-linked sulfhydryl oxidase ALR (Homo sapiens, UniProt P55789); assay: ALR-catalysed DTT oxidation blockers – biochemical, H2O2 detection, luminescence, cherry-pick, dose response (AID 493248)
# Paired box protein Pax-8 = Paired box protein Pax-8 (Homo sapiens, UniProt Q06710); assay: PAX8 transcriptional activity inhibition in RMG-I – RMG-I cells, luciferase, cherry-pick, dose response (AID 687027); assay type: functional, cell-based;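 further: luciferase reporter driven by Pax8 target thyroperoxidase promoter measured by SteadyGlo luminescence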
# [11] = Luminescence Cell-Based Dose Retest to Confirm Inhibitors of Cancer Stem Cells. [Related pubchem assays (depositor defined):AID2717, AID2721]; assay type: functional; conditions: Homo sapiens
# INS1 = assay: INS-1E survival protection against cytokine death – cell-based, luminescence, retest, dose response (AID 449756); assay type: functional; conditions: Rattus norvegicus;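 further: cell death triggered by IL-1 beta plus TNF-alpha plus IFN-gamma mixture; protective hits raise ATP signal compared with cytokine alone wells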
# Chain of Paired box protein Pax-8 (Q06710 whole entry): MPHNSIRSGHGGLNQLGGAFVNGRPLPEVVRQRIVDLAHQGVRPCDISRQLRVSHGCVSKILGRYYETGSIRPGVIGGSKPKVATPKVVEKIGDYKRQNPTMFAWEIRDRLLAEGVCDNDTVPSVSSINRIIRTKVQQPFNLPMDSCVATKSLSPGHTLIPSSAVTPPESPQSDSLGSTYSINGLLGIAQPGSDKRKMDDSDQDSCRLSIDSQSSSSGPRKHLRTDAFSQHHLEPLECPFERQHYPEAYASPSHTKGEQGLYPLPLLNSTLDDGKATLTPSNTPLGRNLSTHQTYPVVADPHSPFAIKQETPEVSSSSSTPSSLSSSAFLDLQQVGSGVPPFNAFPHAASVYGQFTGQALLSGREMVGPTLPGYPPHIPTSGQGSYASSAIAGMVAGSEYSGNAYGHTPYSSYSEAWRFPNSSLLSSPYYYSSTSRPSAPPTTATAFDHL
# Chain of FAD-linked sulfhydryl oxidase ALR (P55789 whole entry): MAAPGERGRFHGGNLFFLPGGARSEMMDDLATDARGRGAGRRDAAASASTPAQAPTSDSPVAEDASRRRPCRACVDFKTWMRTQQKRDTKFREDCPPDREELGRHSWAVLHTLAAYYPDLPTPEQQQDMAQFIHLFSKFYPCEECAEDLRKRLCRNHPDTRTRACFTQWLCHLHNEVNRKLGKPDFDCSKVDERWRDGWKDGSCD
# Chain of Cytochrome P450 2C19 (P33261 whole entry): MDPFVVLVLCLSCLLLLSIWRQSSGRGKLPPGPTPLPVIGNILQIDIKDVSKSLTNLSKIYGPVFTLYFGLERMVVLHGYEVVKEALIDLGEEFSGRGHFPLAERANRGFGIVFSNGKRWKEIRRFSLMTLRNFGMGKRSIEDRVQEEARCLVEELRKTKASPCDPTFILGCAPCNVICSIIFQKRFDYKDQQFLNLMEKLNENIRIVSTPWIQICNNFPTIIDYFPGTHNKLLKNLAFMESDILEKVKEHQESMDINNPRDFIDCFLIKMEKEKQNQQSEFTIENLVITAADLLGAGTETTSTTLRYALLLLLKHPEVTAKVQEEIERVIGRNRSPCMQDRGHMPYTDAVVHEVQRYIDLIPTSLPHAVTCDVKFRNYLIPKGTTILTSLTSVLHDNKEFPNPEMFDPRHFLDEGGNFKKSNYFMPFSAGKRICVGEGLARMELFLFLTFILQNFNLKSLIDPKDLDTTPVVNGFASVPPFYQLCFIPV
smiles,measurement,setting,value
Nc1ccc(Nc2nc(-c3ccncc3)cs2)cc1,IC50,[1],9.36 µM (active)
CC1=CC(C)(C)N2C(=O)C3(C(C#N)=C(N)OC4=C3C(=O)CC(C)(C)C4)c3cccc1c32 (stereo unspecified),EC50,[2],> 300 µM (not active)
same,EC50,[3],> 300 µM (not active)
CN(C)c1ccc(N/C=C2/C(=O)NC(=O)N(CCC3=CCCCC3)C2=O)cc1,EC50,[2],> 300 µM (not active)
same,EC50,[3],> 300 µM (not active)
Cc1oc(C)c2c(=O)ccc3c(c12)OC(N)=C(C#N)C3c1ccccc1Cl (stereo unspecified),CC50,[4],> 40 µM (active)
COc1ccc(N2CCC(CN=C(S)Nc3cccc(C)c3)C2)cc1 (stereo unspecified),IC50,[1],39.3 µM (active)
COC(=O)C1=C(C)N(c2ccccc2)/C(=C/c2ccco2)C1=O,EC50,[2],5.06 µM (active)
same,EC50,[3],99 µM (active)
CCCCNC(=O)CN1C(=O)COc2ccc(S(=O)(=O)N3CCCCCC3)cc21,EC50,cells [5],> 350 µM (not active)
same,EC50,cells [6],> 350 µM (not active)
CC(=O)C[C@H]1c2cc(F)ccc2S(=O)(=O)N1c1ccc(N(C)C)cc1,IC50,[1],119 µM (active)
same,EC50,[7],33.8 µM (active)
CN(C)c1ccc(N=Nc2ccc(S(N)(=O)=O)cc2)cc1,EC50,cells [5],3.13 µM (active)
same,EC50,cells [6],> 350 µM (not active)
CCc1cccc2c(C(=O)CCl)c[nH]c12,CC50,[4],24.4 µM (active)
CCC(C)c1ccc2oc(-c3ccc(NC(=O)Cn4cnc5c(=O)n(C)c(=O)n(C)c54)cc3)nc2c1 (stereo unspecified),EC50,cells [5],43.7 µM (active)
same,EC50,cells [6],> 350 µM (not active)
same,EC50,[8],8.52 µM (active)
same,EC50,[9],9.27 µM (active)
COc1ccc(CN2CCCN(C)CC2)c(OC)c1C,IC50,[1],124 µM (active)
CCOC(=O)c1nn(-c2ccc(C)cc2)c2nc(Nc3ccccc3)cc(=O)n12,EC50,[2],> 300 µM (not active)
same,EC50,[3],78.2 µM (active)
CN1C(=S)SC(N(O)C(=O)Nc2ccc(Cl)c(Cl)c2)C1(C)C (stereo unspecified),CC50,[4],38.9 µM (active)
O=C(NCc1ccccc1)C1Nc2ccc(OC(F)(F)F)cc2C2C=CCC12 (stereo unspecified),EC50,[2],> 300 µM (not active)
same,EC50,[3],> 300 µM (not active)
Cc1ccccc1SCC(=O)OCC(=O)Nc1ccc(N(C)C)cc1,IC50,[1],66.7 µM (active)
O=C(CN1C(=O)c2ccccc2S1(=O)=O)c1ccc(O)c(O)c1,IC50,[1],175 µM (active)
CS(=O)(=O)n1nc(-c2ccccc2)nc1NCc1ccco1,EC50,cells [5],> 350 µM (not active)
same,EC50,cells [6],> 350 µM (not active)
COCCNCCOCCOc1ccc(Cl)c(C)c1,IC50,[1],138 µM (active)
CC[C@H](C)[C@@H]1O[C@@]2(C=CC1C)CC1C[C@@H](CC=C(C)C(O[C@H]3CC(OC)C(O[C@H]4CC(OC)C(O)C(C)O4)C(C)O3)C(C)C=CC=C3CO[C@@H]4C(O)C(C)=C[C@@H](C(=O)O1)[C@]34O)O2 (stereo partly specified),CC50,[4],15.9 µM (active)
CCOc1ccc(N(C(=O)/C=C/C(=O)Nc2cc(C)on2)C(C(=O)NC2CCCC2)c2ccccc2C)cc1 (stereo unspecified),CC50,[4],20.2 µM (active)
same,AC50,Cytochrome P450 2C19,31.6 µM (inconclusive)
CC/C(=C\c1ccc(N(C)C)cc1)c1ccncc1,IC50,[1],30.2 µM (active)
same,IC50,Protein skinhead-1,> 100 µM (inactive)
O=C(CN1CCN(c2ccc(O)cc2)CC1)N(C1CC1)C1CCS(=O)(=O)C1 (stereo unspecified),IC50,[1],80.2 µM (active)
same,AC50,[10],0.238 µM (active)
COC(=O)C1CCN(C(=O)COC(=O)/C=C/c2ccc(O)c(OC)c2)CC1,IC50,[1],49.7 µM (active)
C[C@H](CO)N1C[C@H](C)[C@@H](CN(C)C(=O)NC2CCCCC2)Oc2cc(C#Cc3ccc(F)cc3)ccc2S1(=O)=O,AC50,Paired box protein Pax-8,9.52 µM (active)
C[C@@H]1CN([C@@H](C)CO)C(=O)c2cc(NC(=O)Nc3ccc(C(F)(F)F)cc3)ccc2O[C@@H](C)CCCCO[C@@H]1CN(C)CC1CCCCC1,AC50,Paired box protein Pax-8,3.9 µM (active)
Cc1nnc(S/C(=C/c2ccc(-c3cc(Cl)ccc3C)o2)C(=O)O)[nH]1,EC50,[2],31 µM (active)
same,EC50,[3],38.4 µM (active)
CCOC(=O)C(/C=N/c1ccc(NC2=NCC(C)S2)cc1)=C(/O)OCC (stereo unspecified),EC50,cells [5],> 350 µM (not active)
same,EC50,cells [6],> 350 µM (not active)
Cc1c(C(=O)O)cccc1-n1c(C)cc(/C=N/NC(=O)c2cc3ccccc3o2)c1C,EC50,[2],> 300 µM (not active)
same,EC50,[3],> 300 µM (not active)
CCN(CC)S(=O)(=O)c1ccc(N/N=C/c2cc(OC)ccc2O)nc1,AC50,[11],4.47 µM (active)
same,AC50,INS1,1.69 µM (active)
same,EC50,cells [5],25.7 µM (active)
same,EC50,cells [6],302 µM (active)
